Measurements from US20220380383A1, “NEUROPROTECTIVE PDI MODULATING SMALL MOLECULES AND METHODS OF USE THEREOF” (THE TRUSTEES OF COLUMBIA UNIVERSITY IN THE CITY OF NEW YORK, priority 2018, published 2022).
In brackets after ≈: the same amount, converted by molar mass. Read-outs that look alike come from different tables or passages of the source.

Legend:
[1] = biological target: T1, human catalytic PDI A1 a domain (PDIa) (Homo sapiens, UniProt P07237); test: Isothermal titration calorimetry (ITC) binding to PDIa
T1 construct: made in house; host or cells: Escherichia coli BL21-Gold (DE3)
Description: All ITC experiments were carried out at 25° C. on MicoCal Auto-ITC200 system (GE Healthcare). […] ITC titration experiments were carried out at 25° C. with 19 injections, 2 μl per injection, and 180 seconds between each injection. The reference cell power was set to 5 μcal/sec. A control experiment was performed for each compound, where each compound was titrated into buffer to account for heat released due to dilution. This background was subtracted from test data before a final dissociation constant was obtained. […] Gibbs free energy, ΔG, was calculated from equation ΔG=ΔH-TΔS. All other parameters, Ka, n, ΔH, ΔS, were determined directly from the titration data.
LOC14 analogs were designed and synthesized as described in the synthetic schemes. The analogs were evaluated for their binding to PDIa using isothermal titration calorimetry (ITC) (results of certain compounds are shown in FIGS. 1A-1E). Next, the analogs were tested for their ability to rescue PC12 cells from mHTT^Q103 induced cell death in a dose-dependent manner (results of certain compounds are shown in FIG. 2).

PC12 mHTTQ103 cells = test: Rescue of PC12 cells from mHTTQ103-induced cell death; type: cell-based, rat; conditions: for EC50: Rattus norvegicus, PC-12
[2] = Solubility (stock solvent)
[3] = Tables 5-13, PC12 cells, read-out: EC50
[4] = rescue from mHTTQ103 induced cell death
[5] = Tables 5-13, solvent not given (DMSO in Table 1)
[6] = N/A = not active, read-out: ITC KD
[7] = rescue from mHTTQ103 induced cell death, read-out: PC12 cells EC50
[8] = Tables 5-13, NA = not active, read-out: Kd

T1 sequence (P07237 18-134): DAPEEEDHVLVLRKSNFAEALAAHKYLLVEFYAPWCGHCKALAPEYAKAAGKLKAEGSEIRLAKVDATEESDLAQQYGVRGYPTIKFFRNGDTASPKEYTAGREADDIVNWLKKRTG

Row | Structure (SMILES) | ITC KD ([1]; N/A = not active) | Solubility [2] [mM in DMSO] | Solubility [2, 5] [mM] | Kd ([1]; ITC assay, read-out: KD) [nM] | Kd [1, 6] [nM] | EC50 (PC12 mHTTQ103 cells; [3]) [nM] | Max Viability (%) (PC12 mHTTQ103 cells; Tables 5-13, PC12 cells) | PC12 cells Max % Viability (PC12 mHTTQ103 cells; [4]) [%] | EC50 (PC12 mHTTQ103 cells; [7]) [nM] | PC12 cells EC50 (PC12 mHTTQ103 cells; [4]) | Kd [1, 8] [nM] | Kd ([1]; Tables 6, 11, 12, read-out: Kd (nM), first value of two-site binding) [nM] | Kd ([1]; Tables 6, 11, 12, read-out: Kd (nM), second value of two-site binding) [nM]
1 | O=c1[nH]sc2c(C(F)(F)F)cccc12 [LC-41] | KD = N/A irreversible or not active | 100 | 100 (≈ 21.9 mg/mL) | – | – | – | 9 | 9.16 | – | Not Active | – | – | –
2 | O=C(Nc1ccccc1)c1ccccc1S [LC-19] | KD = N/A irreversible or not active | – | – | – | – | – | – | – | – | – | – | – | –
3 | Cc1ccc2c(=O)[nH]sc2c1 [LC-60, 6-Methylbenzo[d]isothiazol-3(2H)-one] | – | 100 | 100 (≈ 16.5 mg/mL) | – | 347 | 562 | 60 | 59.49 | 562 | – | 347 | – | –
4 | O=c1c2cccnc2sn1CCN1CCCCC1 [LC-54] | – | 100 | 100 (≈ 26.3 mg/mL) | – | < 20 | – | 11 | 10.67 | – | Not Active | ≤ 20 | – | –
5 | O=c1c2cccnc2sn1CCC1CCNCC1 [LC-56] | KD = N/A irreversible or not active | 100 | 100 (≈ 26.3 mg/mL) | – | – | – | 14 | 14.03 | – | Not Active | – | – | –
6 | CC(C)(C)OC(=O)NC1CCN(Cn2sc3ccccc3c2=O)CC1 [LC-8] | – | – | – | – | – | 384 | 68 | 68.37 | 384 | – | 94 | – | –
7 | O=c1c2ccccc2sn1Cc1ccccc1 [LC-5] | – | 100 | 100 (≈ 24.1 mg/mL) | – | – | – | – | – | – | – | – | 43 | 2270
8 | O=c1[nH]sc2ncccc12 [LC-47, isothiazolo[5,4-b]pyridin-3(2H)-one] | KD = N/A irreversible or not active | – | – | – | – | > 50000 | 36 | 36.31 | – | – | – | – | –

Second part, led by results:

Row | ITC KD ([1]; N/A = not active) | Solubility [2] [mM in DMSO] | Solubility [2, 5] [mM] | Kd ([1]; ITC assay, read-out: KD) [nM] | Kd [1, 6] [nM] | Structure (SMILES) | EC50 (PC12 mHTTQ103 cells; [3]) [nM] | Max Viability (%) (PC12 mHTTQ103 cells; Tables 5-13, PC12 cells) | PC12 cells Max % Viability (PC12 mHTTQ103 cells; [4]) [%] | EC50 (PC12 mHTTQ103 cells; [7]) [nM] | PC12 cells EC50 (PC12 mHTTQ103 cells; [4]) | Kd [1, 8] [nM] | Kd ([1]; Tables 6, 11, 12, read-out: Kd (nM), first value of two-site binding) [nM] | Kd ([1]; Tables 6, 11, 12, read-out: Kd (nM), second value of two-site binding) [nM]
9 | KD = N/A irreversible or not active | 100 | 100 (≈ 32.1 mg/mL) | – | – | O=C(Nc1ccc(Oc2ccccc2)cc1)c1ccccc1S [LC-33] | 2940 | 54 | 54.43 | – | – | – | – | –
10 | – | 5 | 5 (≈ 2.06 mg/mL) | 13 | 12.7 | O=c1c2ccccc2sn1CN1CCN(Cn2sc3ccccc3c2=O)CC1 [LC-9] | – | 66 | 66.07 | 173 | – | – | – | –
11 | KD = N/A irreversible or not active | 100 | 100 (≈ 25.5 mg/mL) | – | – | O=C(c1ccccc1)n1sc2ccccc2c1=O [LC-11] | > 50000 | 28 | 27.72 | – | – | – | – | –
12 | KD = N/A irreversible or not active | 100 | 100 (≈ 32.2 mg/mL) | – | – | Cc1ccc(NC(=O)c2ccccc2S)c(Br)c1 [LC-34] | 3770 | 42 | 41.95 | – | – | – | – | –
13 | – | 100 | 100 (≈ 26.4 mg/mL) | – | – | O=c1c2ccccc2sn1CN1CCC(O)CC1 [LC-7] | 441 | 72 | 71.98 | – | – | – | – | –
14 | – | 100 | – | – | – | O=C(C1CC1)N1CCN(Cn2oc3ccccc3c2=O)CC1 [Oxy- LOC14] | – | – | 8.16 | – | Not Active | – | – | –
15 | KD = N/A irreversible or not active | – | – | – | – | CC(C)(C)OC(=O)N1CCC(COc2nsc3ccccc23)CC1 [LC-16] | > 50000 | 30 | 30.24 | – | – | – | – | –
16 | KD = N/A irreversible or not active | – | – | – | – | O=c1c2ccccc2sn1-c1ccc(N2CCOCC2)cc1 [LC-27] | 1830 | 28 | 28.37 | – | – | – | – | –
17 | KD = N/A irreversible or not active | – | – | – | – | O=C(C1CC1)N1CCN(C(=O)n2sc3ccccc3c2=O)CC1 [LC-14] | > 50000 | 34 | 33.58 | – | – | – | – | –
